These are literature values, as cited in publication PMC7449217, “The FDA-Approved Drug Nelfinavir Inhibits Lytic Cell-Free but Not Cell-Associated Nonlytic Transmission of Human Adenovirus” (Antimicrobial Agents and Chemotherapy, 2020).

Like-named read-outs stand apart in the source and are kept apart here.

One series deals with HAdV-C2-dE3B-GFP. Also on record: method as in earlier work. As to conditions: A549, 1.25 μM compound, normalized to neg. ctr., cited from earlier work.
The next series deals with A549 cells. As to conditions: cited from earlier work.

Regarding `Cc1cc(N)c2ccccc2[n+]1CCCCCCCCCC[n+]1c(C)cc(N)c2ccccc21` [Dequalinium dichloride], in the series with HAdV-C2-dE3B-GFP (analysis EPFL), the “Normalized mean read-outs: Infected nuclei” value was 0.33, the “Normalized mean read-outs: Infection index” value is 0.46, the “Normalized mean read-outs: Nuclei” value was 0.71 and the “Normalized mean read-outs: Plaques” value is reported as 0.44. Further, the “Normalized mean read-outs: Virus intensity” value with HAdV-C2-dE3B-GFP (analysis EPFL) is reported as 0.38 AU. Further, in the series on HAdV-C2-dE3B-GFP (analysis UZH), the “Normalized mean read-outs: Infected nuclei” value is listed as 0.49, the “Normalized mean read-outs: Infection index” value is 0.62, the “Normalized mean read-outs: Nuclei” value was 0.79 and the “Normalized mean read-outs: Plaques” value is given as 0.51. In addition, the “Normalized mean read-outs: Virus intensity” value in the series with HAdV-C2-dE3B-GFP (analysis UZH) was 0.37 AU. In the series on A549 cells, the Toxic result was “yes”.

Regarding `Nc1c2ccccc2nc2ccccc12` [Aminacrine], in the series on HAdV-C2-dE3B-GFP (analysis EPFL), the “Normalized mean read-outs: Infected nuclei” value is 0.60, the “Normalized mean read-outs: Infection index” value is 0.42, the “Normalized mean read-outs: Nuclei” value is 1.42 and the “Normalized mean read-outs: Plaques” value is recorded as 0.67. In addition, in the series on HAdV-C2-dE3B-GFP (analysis EPFL), the “Normalized mean read-outs: Virus intensity” value is 0.51 AU. For the same compound, in the series with HAdV-C2-dE3B-GFP (analysis UZH), the “Normalized mean read-outs: Infected nuclei” value is 0.53, the “Normalized mean read-outs: Infection index” value is reported as 0.62, the “Normalized mean read-outs: Nuclei” value is recorded as 0.87 and the “Normalized mean read-outs: Plaques” value was 0.75. The “Normalized mean read-outs: Virus intensity” value with HAdV-C2-dE3B-GFP (analysis UZH) is reported as 0.50 AU. Besides, the Toxic result in the series on A549 cells was “no”.

For the compound `Cc1cn([C@H]2C[C@H](F)[C@@H](CO)O2)c(=O)[nH]c1=O` [3'-deoxy-3'-fluorothymidine], in the series with HAdV-C2-dE3B-GFP (analysis EPFL), the “Normalized mean read-outs: Infected nuclei” value is 0.12, the “Normalized mean read-outs: Infection index” value is 0.17, the “Normalized mean read-outs: Nuclei” value is listed as 0.70 and the “Normalized mean read-outs: Plaques” value is 0.00148. Besides, in the series with HAdV-C2-dE3B-GFP (analysis EPFL), the “Normalized mean read-outs: Virus intensity” value is recorded as 0.32 AU. For the same compound, in the series with HAdV-C2-dE3B-GFP (analysis UZH), the “Normalized mean read-outs: Infected nuclei” value is reported as 0.13, the “Normalized mean read-outs: Infection index” value is 0.15, the “Normalized mean read-outs: Nuclei” value is recorded as 0.83 and the “Normalized mean read-outs: Plaques” value is given as 0.00429. Further, the “Normalized mean read-outs: Virus intensity” value in the series on HAdV-C2-dE3B-GFP (analysis UZH) is recorded as 0.30 AU. Moreover, the Toxic entry in the series with A549 cells was “no”.

Regarding `CCCCCCCCCCCCCCCC[N+](C)(C)CCN(Cc1ccc(OC)cc1)c1ncccn1` [Thonzonium bromide], in the series on HAdV-C2-dE3B-GFP (analysis EPFL), the “Normalized mean read-outs: Infected nuclei” value is 0.45, the “Normalized mean read-outs: Infection index” value is reported as 0.56, the “Normalized mean read-outs: Nuclei” value was 0.81 and the “Normalized mean read-outs: Plaques” value is listed as 0.56. Moreover, the “Normalized mean read-outs: Virus intensity” value in the series on HAdV-C2-dE3B-GFP (analysis EPFL) is 0.50 AU. Moreover, in the series on HAdV-C2-dE3B-GFP (analysis UZH), the “Normalized mean read-outs: Infected nuclei” value was 0.54, the “Normalized mean read-outs: Infection index” value is 0.63, the “Normalized mean read-outs: Nuclei” value is reported as 0.84 and the “Normalized mean read-outs: Plaques” value is listed as 0.54. The “Normalized mean read-outs: Virus intensity” value in the series on HAdV-C2-dE3B-GFP (analysis UZH) is given as 0.49 AU.
